US20020103111A1, “Inhibitors of MAdCAM-1-mediated interactions and methods of use therefor” (Millennium Pharmaceuticals, Inc., priority 1996, published 2002)
Like-named read-outs stand apart in the source and are kept apart here. Square brackets hold non-standard residues; d marks the D form. Ends that are not written are not given here. Peptide text beside a SMILES is read from it. * marks the point of attachment. Butanoyl(4-pyren-1-yl) = O=C(CCCc1ccc2ccc3cccc4ccc1c2c34)*; NMeL = CN[C@@H](CC(C)C)C(=O)O

Target: T1, murine MAdCAM-1 (MAdCAM-1/mCk fusion protein); α4β7-bearing HUT 78 cells (Homo sapiens, UniProt P13612+P26010)
T1 construct: host or cells: HUT 78 cells (endogenous α4β7); The MAdCAM-1/mCk partner was made in house in baculovirus-infected Sf9 insect cells, used as neat supernatant and captured by rat anti-mCk antibody
Assay: Adhesion of HUT 78 cells to MAdCAM-1/mCk fusion protein bound via capture antibody
Assay type: cell-based
Settings: for IC50: HUT 78 cell adhesion to MAdCAM-1/mCk, average of two determinations; for inhibition at 500 µM: HuT78, 500 μM compound, read-out: % Adhesion Inhibition 500 μM; for inhibition at 500 µM / % Adhesion Inhibition 500 μM: HUT 78 cells, Mn2+ activated; for % Adhesion Inhibition 500 μM: 500 μM compound; for inhibition at 100 µM: HuT78, read-out: % Adhesion Inhibition
Procedure: The compounds of the present invention were evaluated for their biological properties.
A soluble fusion protein comprising murine MAdCAM-1 was produced in a baculovirus expression system and used in the adhesion assay. A fusion gene in which sequences encoding the signal peptide and extracellular domain of murine MAdCAM-1 were fused to sequences encoding a constant region of the murine kappa light chain (mCk) was constructed, and cloned into a baculovirus shuttle vector. Fusion protein produced from the resulting construct contained the integrin binding sequences of murine MAdCAM-1 at the amino-terminus, and the mCk sequence at the carboxy-terminus. Recombinant baculovirus encoding the fusion protein was harvested from infected Sf9 insect cells.
Human T-cell lymphoma cells (HUT 78 cells) activated with Mn^+2 were used for the adhesion assay in a 96-well format. HUT 78 cells were labelled by preincubation with ECECF-AM stain (Molecular Probes). Assays were conducted in a final volume of 200 μl. The adhesion of HUT 78 cells to MAdCAM-1/mCk fusion protein bound to wells via rat anti-mCk capture antibody was assessed in the presence or absence of each compound. […] Percent inhibition and IC50 values were determined.
HUT 78 cells (a human T cell lymphoma line; American Type Culture Collection, Accession No. ATCC TIB 161) were maintained in culture for up to one month in RPMI 1640 supplemented with 10% FCS, 20 mM HEPES, and Pen-Strep (1:100). Just prior to use in adhesion assays, cells were labeled with BCECF-AM as follows: 1×10^7 cells were pelleted at 1000 rpm for 10 minutes and resuspended in 25 mL cold PBS (Phosphate Buffered Saline). The cells were pelleted again, resuspended in cold PBS, and pelleted again. The cell pellet was resuspended in 25 ml PBS and labeled with 50 μl BCECF-AM (1 μg/μL in DMSO) for 30 minutes at 37° C. (BCECF-AM; 2′,7′-bis-(2-carboxyethyl)-5-(and-6)-carboxyflourescein, acetoxymethyl ester). The labeled cells were pelleted at 700 rpm for 10 minutes, resuspended in 25 ml cold Assay Buffer and pelleted.
The assay was performed in a 96-well format. Plates were coated overnight at 4° C. with 53 μl/well of a 5 μg/mL solution of rat anti-mCk in carbonate buffer. The plates were blocked for 1 hour at 37° C. with 100 μL/well of 1% BSA in PBS. The BSA/PBS solution was removed, and 50 μL of MAdCAM-mCk supernatant was added neat to each well. The assay was conducted under conditions in which capture antibody was the limiting reagent.
Cell adhesion was measured in the presence or absence of compounds. The compounds were resuspended in 100% DMSO, subsequently diluted 1:10 in water, and finally diluted again 1:10 in the assay: 50 μL of 2X Assay Bufler, 30 μL water, 20 μL of compound were added to each well. […] Cell adhesion occurred in 30 minutes at ambient temperature, after which plates were washed with 50 mM Tris/2 mM MnCl2, pH 7.2 using an EL 404 Microplate Autowasher (BIO-TEK Instruments) using the following wash parameters: wash volume=500 μL; two wash cycles; wash depth=80; aspirating after each wash.
Additional determinations were conducted as needed, so that each IC50 was determined over a range which encompassed the IC50. Over this range, Four different concentrations were tested in duplicate.
For each compound, a ratio was determined as follows: An average of the readings from duplicate wells was divided by an average of eight control wells (adhesion in the absence of any compound). […] In addition, the concentration (μM) of compound used was plotted against the resulting ratios.
The IC50 was then determined using Kaleidograph software (Abelbeck Software). The complete procedure was repeated again using duplicate wells for each point.

What does the source list for `CC(=O)N[C@@H](CCCNC(=N)N)C(=O)NCC(=O)N[C@@H](CC(C)C)C(=O)N[C@@H](CC(=O)O)C(=O)N[C@H](C(=O)N[C@@H](CO)C(N)=O)[C@@H](C)O` [Example 12, Ac-Arg-Gly-Leu-Asp-Thr-Ser] (Ac-RGLDTS-NH2)?
IC50 (read-out: IC50): 1790 µM; inhibition at 500 µM: 31%

For `CC(=O)NCC(=O)N[C@@H](CC(C)C)C(=O)N[C@@H](CC(=O)O)C(=O)N[C@H](C(=O)N[C@@H](CO)C(=O)N[C@@H](CC(C)C)C(N)=O)[C@@H](C)O` [Example 9, Ac-Gly-Leu-Asp-Thr-Ser-Leu] (Ac-GLDTSL-NH2), which inhibition at 500 µM is on record?
The inhibition at 500 µM was 58%.

For Ac-Lle-Asp-Thr-Ser-Leu [Example 46], which “% Adhesion Inhibition 500 μM” value is on record?
Its value is 17%.

For `CC(C)C[C@H](NC(=O)[C@H](CO)NC(=O)[C@@H](NC(=O)[C@H](CC(=O)O)NC(=O)[C@H](CC(C)C)NC(=O)C1C(C)(C)C1(C)C)[C@@H](C)O)C(N)=O` [Example 25, Tpc-Leu-Asp-Thr-Ser-Leu], which IC50 (read-out: IC50) is on record?
Its IC50 is 121 µM.

What about the inhibition at 500 µM of the same molecule?
The inhibition at 500 µM was 39%.

`CC(C)C[C@H](NC(=O)[C@H](CO)NC(=O)[C@@H](NC(=O)[C@H](CC(=O)O)NC(=O)[C@H](CC(C)C)NC(=O)CCCc1ccc2ccc3cccc4ccc1c2c34)[C@@H](C)O)C(N)=O` [Example 36, Pba-Leu-Asp-Thr-Ser-Leu] was tested. Which IC50 (IC50 (μM)) did it give?
The IC50 was 4 µM.

With `CC(C)C[C@H](NC(=O)[C@H](CO)NC(=O)[C@@H](NC(=O)[C@H](CC(=O)O)NC(=O)[C@H](CC(C)C)NC(=O)C(c1ccccc1)(c1ccccc1)c1ccccc1)[C@@H](C)O)C(N)=O` [Example 28, Tpa-Leu-Asp-Thr-Ser-Leu] as the molecule, how does the IC50 (read-out: IC50) read?
The IC50 was 0.3 µM.

With “NH2-His-Trp-Arg-Gly-Leu-Asp-Thr-Ser-Leu-Gly-Ser-Val (H-HWRGLDTSLGSV; not fully specified (C-terminus); printed as NH2-His-Trp-Arg-Gly-Leu-Asp-Thr-Ser-Leu-Gly-Ser-Val) [Example 56]” as the molecule, how does the “% Adhesion Inhibition 500 μM” value read?
The value was 80%.

`CC(C)C[C@H](NC(=O)[C@H](CO)NC(=O)[C@@H](NC(=O)[C@H](CC(=O)O)NC(=O)[C@H](CC(C)C)NC(=O)c1ccc2ccc3cccc4ccc1c2c34)[C@@H](C)O)C(N)=O` [Example 34, Pca-Leu-Asp-Thr-Ser-Leu] was tested. Which IC50 (IC50 (μM)) did it give?
Its IC50 is 2.1 µM.

For `CC(C)C[C@H](NC(=O)[C@H](CO)NC(=O)[C@@H](NC(=O)[C@H](CC(=O)O)NC(=O)[C@H](CC(C)C)NC(=O)CC(c1ccccc1)(c1ccccc1)c1ccccc1)[C@@H](C)O)C(N)=O` [Example 37, Tphp-Leu-Asp-Thr-Ser-Leu], which IC50 (read-out: IC50) is on record?
The IC50 was 14 µM.

Which “% Adhesion Inhibition 500 μM” value does the source give for “Ac-Arg-Gly-Leu-Asp-Thr-Ser-Leu-Gly (Ac-RGLDTSLG; not fully specified (C-terminus); printed as Ac-Arg-Gly-Leu-Asp-Thr-Ser-Leu-Gly) [Example 59]” here?
Its value is 75%.

For `CC(C)C[C@H](NC(=O)[C@H](CO)NC(=O)[C@@H](NC(=O)[C@H](CC(=O)O)NC(=O)[C@H](CC(C)C)NC(=O)C(c1ccccc1)c1ccccc1)[C@@H](C)O)C(N)=O` [Example 31, Dpa-Leu-Asp-Thr-Ser-Leu], which IC50 (read-out: IC50) is on record?
Its IC50 is 11 µM.

Which results are given for `C[C@@H](O)[C@H](NC(=O)[C@H](CC(=O)O)NC(=O)CCCc1ccc2ccc3cccc4ccc1c2c34)C(N)=O` [Example 53, Pba-Asp-Thr]?
inhibition at 100 µM: 100%; IC50 (IC50 (μM)): 13.5 µM

`CC(C)C[C@H](NC(=O)[C@H](CO)NC(=O)[C@@H](NC(=O)[C@H](CC(=O)O)NC(=O)CCCc1ccc2ccc3cccc4ccc1c2c34)[C@@H](C)O)C(N)=O` [Example 51, Pba-Asp-Thr-Ser-Leu] ({Butanoyl(4-pyren-1-yl)}-DTSL-NH2) was tested. Which inhibition at 100 µM did it give?
Its inhibition at 100 µM is 100%.

And the IC50 (IC50 (μM))?
The IC50 was 13.3 µM.

For `CC(=O)N[C@@H](CCCNC(=N)N)C(=O)NCC(=O)N[C@@H](CC(C)C)C(=O)N[C@@H](CC(=O)O)C(=O)N[C@H](C(=O)N[C@@H](CO)C(=O)N[C@@H](CC(C)C)C(N)=O)[C@@H](C)O` [Example 8, Ac-Arg-Gly-Leu-Asp-Thr-Ser-Leu] (Ac-RGLDTSL-NH2), which inhibition at 500 µM is on record?
The inhibition at 500 µM was 35%.

What does the source list for “MeLeu-Leu-Asp-Thr-Ser-Leu ([NMeL]LDTSL) [Example 27]”?
% Adhesion Inhibition 500 μM: 54%; IC50 (read-out: IC50): 256 µM

Which results are given for `CC(C)Cc1ccc(C(C)C(=O)N[C@@H](CC(C)C)C(=O)N[C@@H](CC(=O)O)C(=O)N[C@H](C(=O)N[C@@H](CO)C(=O)N[C@@H](CC(C)C)C(N)=O)[C@@H](C)O)cc1` (stereo partly drawn) [Example 19, Impa-Leu-Asp-Thr-Ser-Leu]?
IC50 (read-out: IC50): 1140 µM; inhibition at 500 µM: 44%

For “Ac-Trp-Arg-Gly-Leu-Asp-Thr-Ser-Leu-Gly-Ser (Ac-WRGLDTSLGS; not fully specified (C-terminus); printed as Ac-Trp-Arg-Gly-Leu-Asp-Thr-Ser-Leu-Gly-Ser) [Example 60]”, which “% Adhesion Inhibition 500 μM” value is on record?
The value was 71%.
